According to PubChem BioAssay (NCI):
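1) Cells in 96-well plates. 2) Compound, 48 h, 5 concentrations. 3) Linear interpolation between surrounding doses. 4) Unreached endpoint = highest concentration. GI50: concentration for 50% inhibition of growth. TGI: total growth inhibition.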

Legend:
Assay in all cases: growth of human tumour cells (NCI), 48 h
SN12C renal = test system: SN12C renal
MALME-3M melanoma = test system: MALME-3M melanoma
U251 CNS = test system: U251 CNS
NCI-H23 lung = test system: NCI-H23 lung
MCF7 breast = test system: MCF7 breast
OVCAR-8 ovarian = test system: OVCAR-8 ovarian
SNB-19 CNS = test system: SNB-19 CNS
DU-145 prostate = test system: DU-145 prostate
EKVX NSCLC = test system: EKVX NSCLC
KM12 colon = test system: KM12 colon

Compound	TGI (SN12C renal)	TGI (MALME-3M melanoma)	TGI (U251 CNS)	TGI (NCI-H23 lung)	TGI (MCF7 breast)	TGI (OVCAR-8 ovarian)	TGI (SNB-19 CNS)	TGI (DU-145 prostate)	TGI (EKVX NSCLC)	TGI (KM12 colon)	GI50 (SN12C renal)	GI50 (MALME-3M melanoma)	GI50 (U251 CNS)	GI50 (NCI-H23 lung)	GI50 (MCF7 breast)	GI50 (OVCAR-8 ovarian)	GI50 (SNB-19 CNS)	GI50 (DU-145 prostate)	GI50 (EKVX NSCLC)	GI50 (KM12 colon)
O=C1c2ccccc2C(=O)c2c(/C=C\N3CCCCC3)ccnc21	4.14 µM	1.67 µM	14.5 µM	1.31 µM	4.01 µM	17.5 µM	17.1 µM	2.96 µM	31.2 µM	18 µM										
CCNC(=O)C#Cc1ccc2c(C(=Nc3ccc(CN(C)C)cc3)c3ccccc3)c(O)[nH]c2c1	1.59 µM	0.0268 µM	2.9 µM	> 4.28 µM	4.59 µM	> 10 µM	> 5.9 µM	> 10 µM	> 10 µM	> 10 µM	0.0671 µM	0.00358 µM	0.376 µM	0.0614 µM	0.0458 µM	1.04 µM	0.206 µM	1.26 µM	0.47 µM	0.0323 µM
Cn1cc(-c2cc3c(N4CCN(c5ncc([C@@](C)(N)c6ccc(F)cc6)cn5)CC4)ncnn3c2)cn1	> 100 µM	> 100 µM	> 100 µM		> 100 µM	> 100 µM	> 100 µM	> 100 µM	> 100 µM	> 100 µM	5.46 µM	4.16 µM	3.67 µM		2.56 µM	4.11 µM	9.63 µM	> 100 µM	4.14 µM	3.49 µM
CN1CCN(c2ccc(Nc3ncc(Cl)c(NC[C@@H]4CCCO4)n3)cc2)CC1	> 100 µM	8.06 µM	49.1 µM	11.6 µM	26.9 µM	> 100 µM	> 100 µM	> 100 µM	5.74 µM	11.7 µM	1.13 µM	1.49 µM	2 µM	0.987 µM	0.683 µM	4.02 µM	3.69 µM	1.96 µM	1.69 µM	0.362 µM
O=C(Nc1cccc(C(F)(F)F)c1)Nc1cccc(C(F)(F)F)c1	5.24 µM	3.92 µM	3.14 µM	1.97 µM	10 µM	10.4 µM	9.93 µM	12.4 µM	7.88 µM	3.19 µM	0.923 µM	1.36 µM	0.509 µM	0.349 µM	0.852 µM	1.06 µM	0.658 µM	0.92 µM	0.983 µM	0.444 µM
NC(=S)N/N=C1\c2cc(Cl)ccc2-c2c1cc(Cl)cc2[N+](=O)[O-]	> 100 µM	87.4 µM	14.9 µM	> 100 µM	16.8 µM	> 100 µM	> 100 µM	> 100 µM	95.6 µM	88.8 µM	4.58 µM	9.26 µM	2.99 µM	3.86 µM	1.98 µM	4.62 µM	4.24 µM	10.8 µM	4.65 µM	5.14 µM
Cc1cc2c(cc1C)[n+](=O)c(C(=O)c1ccccc1)c(C(F)F)n2[O-]	> 100 µM	62.9 µM	> 100 µM	> 100 µM	41.1 µM	> 100 µM	> 100 µM	46.4 µM	44.6 µM	> 100 µM	25.7 µM	23.2 µM	12.7 µM	26.3 µM	12.1 µM	7.11 µM	44.2 µM	10.5 µM	9.43 µM	20.5 µM
CC(=O)Nc1cc2ccc(=O)oc2cc1Cl	> 100 µM	> 100 µM	> 100 µM	> 100 µM	> 100 µM	> 100 µM	> 100 µM	> 100 µM	> 100 µM	> 100 µM										
CN(C)CC(O)c1ccc(/C=C/c2ccc(Cl)cc2)cc1 (centres undefined)	22.9 µM	3.34 µM	2.86 µM	3.19 µM	3.19 µM	3.32 µM	10.4 µM	2.85 µM	3.19 µM	3.03 µM	10.4 µM	1.6 µM	1.53 µM	1.62 µM	1.63 µM	1.75 µM	2.88 µM	1.52 µM	1.34 µM	1.66 µM
NC(N)=NS(=O)(=O)c1ccc(N=Nc2c(O)c(C(=O)O)cc3ccccc23)cc1	> 100 µM	> 100 µM	> 100 µM	> 100 µM	> 100 µM	> 100 µM		> 100 µM	> 100 µM	> 100 µM										
COC1=CC(=O)C(C2(OC(C)C)OC(=O)C(Cl)=C2Cl)=CC1=O (centres undefined)	> 100 µM	> 100 µM		> 100 µM	> 100 µM	78.8 µM	> 100 µM	> 100 µM	> 100 µM	> 100 µM										
Cc1ccc(-c2nc(N3CCNCC3)c3oc(-c4ccc(C)cc4)nc3n2)cc1	3.61 µM	18.9 µM	3.32 µM		3.53 µM	4.63 µM	7.02 µM	3.76 µM	> 51.7 µM	3.2 µM	1.88 µM	7.23 µM	1.83 µM		1.66 µM	2.13 µM	2.6 µM	1.98 µM	> 36.3 µM	1.66 µM
